From ChEMBL document CHEMBL1201862, “PubChem BioAssay data set” (2004)
Calls of active or inactive are those of the source.

Experiments:
[1] = molecular target: T1, 1-phosphatidylinositol 4,5-bisphosphate phosphodiesterase beta-3 (Homo sapiens, UniProt Q01970); experiment: Fluorescence-based biochemical high throughput dose response assay to identify inhibitors of phospholipase C isozymes (PLC-B3).
T1 sequence (Q01970 whole entry): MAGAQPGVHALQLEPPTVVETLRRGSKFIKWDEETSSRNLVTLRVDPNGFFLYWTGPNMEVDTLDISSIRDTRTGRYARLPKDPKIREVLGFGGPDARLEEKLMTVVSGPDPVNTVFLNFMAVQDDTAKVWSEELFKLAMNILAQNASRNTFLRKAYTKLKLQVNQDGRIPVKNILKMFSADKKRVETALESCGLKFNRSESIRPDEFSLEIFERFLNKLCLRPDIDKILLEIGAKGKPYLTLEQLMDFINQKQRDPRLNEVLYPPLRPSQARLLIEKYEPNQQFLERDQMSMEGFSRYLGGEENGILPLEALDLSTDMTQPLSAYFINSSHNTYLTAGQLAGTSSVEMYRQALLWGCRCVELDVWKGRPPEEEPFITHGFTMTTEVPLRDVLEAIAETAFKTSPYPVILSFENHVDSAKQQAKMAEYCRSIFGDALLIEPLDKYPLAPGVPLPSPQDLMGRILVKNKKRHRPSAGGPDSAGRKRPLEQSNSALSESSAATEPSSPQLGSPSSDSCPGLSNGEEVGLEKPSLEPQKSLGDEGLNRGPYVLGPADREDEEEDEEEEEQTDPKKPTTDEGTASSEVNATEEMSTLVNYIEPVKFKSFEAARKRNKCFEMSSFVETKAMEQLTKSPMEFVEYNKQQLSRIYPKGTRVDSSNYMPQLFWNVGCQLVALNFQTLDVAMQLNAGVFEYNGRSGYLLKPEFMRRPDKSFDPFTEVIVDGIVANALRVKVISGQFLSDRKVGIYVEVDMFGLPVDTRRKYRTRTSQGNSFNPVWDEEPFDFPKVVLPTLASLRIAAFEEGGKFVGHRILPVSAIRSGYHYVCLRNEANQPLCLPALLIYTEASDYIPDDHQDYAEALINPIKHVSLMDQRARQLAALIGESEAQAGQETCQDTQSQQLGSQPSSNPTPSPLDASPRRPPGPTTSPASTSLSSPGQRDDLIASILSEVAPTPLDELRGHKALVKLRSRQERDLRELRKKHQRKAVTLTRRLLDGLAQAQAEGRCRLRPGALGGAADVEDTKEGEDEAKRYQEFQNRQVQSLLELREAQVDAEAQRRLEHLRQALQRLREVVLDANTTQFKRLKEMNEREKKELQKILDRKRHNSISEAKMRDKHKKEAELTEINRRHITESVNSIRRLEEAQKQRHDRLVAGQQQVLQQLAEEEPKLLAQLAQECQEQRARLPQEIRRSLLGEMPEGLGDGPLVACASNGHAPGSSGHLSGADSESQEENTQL

[2] = system: Streptococcus sp. 'group A'; experiment: Streptococcus pyogenes SK(-)GAS viability under kanamycin – luminescence, BacTiterGlo, confirmation, counter-screen for streptokinase expression inhibitor project, dose response (AID 1900); assay type: functional, organism-based
Streptococcus = experiment: GAS UMAA2166 growth inhibition – luminescence, BacTiterGlo, counter-screen for streptokinase expression inhibitor project, dose response (AID 1915); assay type: functional, organism-based;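 also: potency for reduction of bacterial viability or growth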
Streptokinase A = molecular target: T2, Streptokinase A (Streptococcus pyogenes serotype M1, UniProt P10520); experiment: viability-normalized secreted streptokinase activity reduction – plasminogen activation absorbance, OD405, dose response (AID 1914); assay type: functional, Streptococcus pyogenes M1 GAS;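 also: secreted streptokinase activity via plasminogen activation per viability signal from cell pellet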
T2 sequence (P10520 whole entry): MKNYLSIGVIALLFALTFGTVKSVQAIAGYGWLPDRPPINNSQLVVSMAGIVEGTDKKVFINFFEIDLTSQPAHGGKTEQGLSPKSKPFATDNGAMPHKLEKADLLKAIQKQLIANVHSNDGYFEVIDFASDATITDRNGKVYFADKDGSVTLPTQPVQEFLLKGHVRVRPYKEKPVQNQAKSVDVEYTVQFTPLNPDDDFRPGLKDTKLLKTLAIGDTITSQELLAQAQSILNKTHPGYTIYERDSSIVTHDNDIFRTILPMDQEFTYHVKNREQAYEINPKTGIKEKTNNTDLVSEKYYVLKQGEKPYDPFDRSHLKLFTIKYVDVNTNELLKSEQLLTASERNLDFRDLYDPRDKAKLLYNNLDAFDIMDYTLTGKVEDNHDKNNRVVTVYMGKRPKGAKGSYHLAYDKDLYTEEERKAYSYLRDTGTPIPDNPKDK

[3] = molecular target: T3, 1-phosphatidylinositol 4,5-bisphosphate phosphodiesterase gamma-1 (Homo sapiens, UniProt P19174); experiment: Counterscreen for inhibitors of phospholipase C isozymes (PLC-B3): Fluorescence-based biochemical high throughput dose response assay to identify inhibitors of phospholipase C isozymes (PLC-gamma1).
T3 sequence (P19174 whole entry): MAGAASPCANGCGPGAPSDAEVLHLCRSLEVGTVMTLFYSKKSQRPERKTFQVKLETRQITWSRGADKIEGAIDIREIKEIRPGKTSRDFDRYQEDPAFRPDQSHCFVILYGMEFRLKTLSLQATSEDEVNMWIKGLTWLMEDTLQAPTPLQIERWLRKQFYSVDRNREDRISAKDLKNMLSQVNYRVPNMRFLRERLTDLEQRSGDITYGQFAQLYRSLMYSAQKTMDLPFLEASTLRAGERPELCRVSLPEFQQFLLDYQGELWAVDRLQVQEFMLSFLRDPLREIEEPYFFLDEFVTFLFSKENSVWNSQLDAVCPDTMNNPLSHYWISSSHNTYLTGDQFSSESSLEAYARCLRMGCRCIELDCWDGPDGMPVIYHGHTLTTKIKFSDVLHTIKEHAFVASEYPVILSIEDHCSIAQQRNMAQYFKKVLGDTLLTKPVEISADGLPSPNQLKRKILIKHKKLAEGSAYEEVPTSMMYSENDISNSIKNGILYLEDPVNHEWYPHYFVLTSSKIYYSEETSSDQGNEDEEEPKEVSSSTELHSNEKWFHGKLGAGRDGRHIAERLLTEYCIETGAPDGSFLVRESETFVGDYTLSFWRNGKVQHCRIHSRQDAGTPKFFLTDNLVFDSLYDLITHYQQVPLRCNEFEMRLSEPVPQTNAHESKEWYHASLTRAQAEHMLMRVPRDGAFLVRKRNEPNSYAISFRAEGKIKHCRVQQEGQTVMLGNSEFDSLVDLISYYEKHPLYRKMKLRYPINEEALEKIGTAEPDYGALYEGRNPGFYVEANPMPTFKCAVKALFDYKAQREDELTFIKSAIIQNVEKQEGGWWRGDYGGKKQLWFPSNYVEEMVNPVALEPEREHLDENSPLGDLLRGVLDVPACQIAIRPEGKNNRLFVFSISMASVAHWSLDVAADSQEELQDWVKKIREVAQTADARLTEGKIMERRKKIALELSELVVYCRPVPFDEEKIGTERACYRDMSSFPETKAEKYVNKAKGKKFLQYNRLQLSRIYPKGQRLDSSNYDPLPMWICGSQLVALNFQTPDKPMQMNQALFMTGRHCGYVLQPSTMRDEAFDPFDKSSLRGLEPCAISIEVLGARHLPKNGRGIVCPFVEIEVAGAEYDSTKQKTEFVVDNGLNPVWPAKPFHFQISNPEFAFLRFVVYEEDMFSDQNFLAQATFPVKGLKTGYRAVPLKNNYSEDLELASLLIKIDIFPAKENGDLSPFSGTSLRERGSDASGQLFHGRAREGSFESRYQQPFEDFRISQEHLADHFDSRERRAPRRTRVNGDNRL

[4] = molecular target: Peroxisome proliferator-activated receptor gamma/Nuclear receptor coactivator 2 (Homo sapiens, UniProt P37231); experiment: (§1) TR-FRET dose response biochemical High Throughput Screening assay for agonists of the steroid receptor coactivator 2 (SRC-2) recruitment by the peroxisome proliferator-activated receptor gamma (PPAR gamma): non-selective agonists. [Related pubchem assays: 1297, 1032 ]; assay type: functional
Protein skinhead-1 = molecular target: T4, Protein skinhead-1 (Caenorhabditis elegans, UniProt P34707); assay type: functional
T4 sequence (P34707 whole entry): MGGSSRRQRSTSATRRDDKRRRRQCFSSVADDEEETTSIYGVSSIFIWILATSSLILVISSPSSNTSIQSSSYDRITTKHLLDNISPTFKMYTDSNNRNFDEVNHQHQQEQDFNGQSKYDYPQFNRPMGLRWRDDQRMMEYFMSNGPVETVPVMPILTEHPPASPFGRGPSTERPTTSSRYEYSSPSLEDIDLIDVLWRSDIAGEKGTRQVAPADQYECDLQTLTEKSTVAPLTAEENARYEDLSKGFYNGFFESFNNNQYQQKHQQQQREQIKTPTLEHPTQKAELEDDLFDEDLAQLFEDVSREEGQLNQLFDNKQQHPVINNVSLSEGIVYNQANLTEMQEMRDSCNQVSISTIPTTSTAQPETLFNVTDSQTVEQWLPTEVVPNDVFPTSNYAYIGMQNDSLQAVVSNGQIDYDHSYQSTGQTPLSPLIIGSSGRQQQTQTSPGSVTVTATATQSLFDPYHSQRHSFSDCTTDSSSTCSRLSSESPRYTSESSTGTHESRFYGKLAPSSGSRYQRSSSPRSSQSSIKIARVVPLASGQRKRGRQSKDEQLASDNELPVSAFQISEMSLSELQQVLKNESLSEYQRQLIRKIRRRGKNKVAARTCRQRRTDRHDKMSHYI

[5] = molecular target: Peroxisome proliferator-activated receptor gamma/Nuclear receptor coactivator 1 (Homo sapiens, UniProt P37231); experiment: as §1, with “1 (SRC-1)” for “2 (SRC-2)”, “assays (depositor defined):AID1300, AID1808, AID504735, AID631]” for “assays: 1297, 1032 ]”; assay type: protein assay
[6] = molecular target: Peroxisome proliferator-activated receptor gamma/Nuclear receptor coactivator 3 (Homo sapiens, UniProt P37231); experiment: as §1, with “3 (SRC-3)” for “2 (SRC-2)”, “1301 (Confirmation screen.), 1048 (Primary screen.)]” for “1297, 1032 ]”; assay type: functional
Major prion protein = Major prion protein (Homo sapiens, UniProt P04156); assay type: functional, cell-based
[7] = HIV-1 Vif–A3G interaction blockers – biochemical, TR-FRET, GST-Vif 1-94, biotin-A3G peptide, dose response retest, primary screen (AID 1117319); assay type: functional;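 also: TR-FRET signal of purified GST-Vif binding a biotinylated A3G peptide; inhibitors lower the FRET signal by blocking Vif and A3G binding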
[8] = molecular target: T5, Carboxy-terminal domain RNA polymerase II polypeptide A small phosphatase 1 (Homo sapiens, UniProt Q9GZU7); experiment: CTDSP1 inhibitors, concentration-response, biochemical, absorbance readout, ultra-high-throughput screen actives (AID 540297); assay type: functional
T5 sequence (Q9GZU7 whole entry): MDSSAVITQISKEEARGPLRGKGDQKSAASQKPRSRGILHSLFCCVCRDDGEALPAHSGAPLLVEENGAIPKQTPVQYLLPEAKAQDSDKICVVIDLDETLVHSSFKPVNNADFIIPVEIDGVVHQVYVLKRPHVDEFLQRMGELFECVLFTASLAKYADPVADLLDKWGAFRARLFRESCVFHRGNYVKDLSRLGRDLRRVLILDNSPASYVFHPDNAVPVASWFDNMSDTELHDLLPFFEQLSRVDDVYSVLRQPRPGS

Caspase-6 = molecular target: T6, Caspase-6 (Homo sapiens, UniProt P55212); experiment: inhibition of CASP6 peptide cleavage – biochemical, VEID-R110 fluorescence, cherry-pick, dose response (AID 720632)
T6 sequence (P55212 whole entry): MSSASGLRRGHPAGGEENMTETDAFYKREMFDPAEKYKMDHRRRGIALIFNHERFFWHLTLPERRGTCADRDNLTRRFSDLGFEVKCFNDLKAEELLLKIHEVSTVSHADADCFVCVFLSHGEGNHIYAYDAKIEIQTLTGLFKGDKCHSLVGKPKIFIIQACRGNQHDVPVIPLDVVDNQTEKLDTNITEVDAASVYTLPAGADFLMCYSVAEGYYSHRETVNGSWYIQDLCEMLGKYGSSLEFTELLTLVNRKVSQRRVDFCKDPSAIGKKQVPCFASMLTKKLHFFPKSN

[9] = molecular target: Induced myeloid leukemia cell differentiation protein Mcl-1 (Homo sapiens, UniProt Q07820); assay type: functional
[10] = molecular target: Eukaryotic translation initiation factor 4E (Mus musculus, UniProt P63073); experiment: blockers of eIF4G binding by eIF4E – biochemical, TR-FRET, dose response (AID 855); assay type: functional;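 also: potency for disrupting eIF4E binding to eIF4GI seen as loss of FRET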
[11] = molecular target: DNA dC->dU-editing enzyme APOBEC-3A (Homo sapiens, UniProt P31941); experiment: Dose Response confirmation of small molecule APOBEC3A DNA Deaminase Inhibitors via a fluorescence-based single-stranded DNA deaminase assay. [Related pubchem assays (depositor defined):AID493011, AID493024]; assay type: functional
[12] = molecular target: DNA dC->dU-editing enzyme APOBEC-3G (Homo sapiens, UniProt Q9HC16); assay type: functional;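 also: Dose-response counterscreen measuring inhibition of APOBEC3G DNA deaminase activity, run while confirming APOBEC3A inhibitors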

O=C(CC1S/C(=N\c2ccccc2)N(CCc2c[nH]c3ccccc23)C1=O)Nc1ccccc1F (stereo unspecified)
IC50 [1]: > 122 µM (inactive)
EC50 [2]: 13.2 µM (active)
EC50 (Streptococcus): 43.5 µM (active)
EC50 (Streptokinase A): 14 µM (inconclusive)
IC50 [3]: > 122 µM (inactive)

Cc1cc2cc(CNC(=O)c3ccc(S(=O)(=O)N4CCCC4)cc3)ccc2n1C
EC50 [4]: 3.91 µM (active)
IC50 (Protein skinhead-1): > 100 µM (inactive)
IC50 (cells): > 138 µM (inactive)
EC50 [5]: 3.68 µM (active)
EC50 [6]: 8.02 µM (active)
IC50 (Major prion protein): 21.5 µM (inactive)

CCOc1cccc(C(=O)Nc2ccc(NC(=O)c3ccccc3)c(C)c2)c1
IC50 [1]: > 122 µM (inactive)
IC50 [3]: > 122 µM (inactive)

CCOC(=O)C1CCN(S(=O)(=O)c2cccc(-c3cn4cccc(C)c4n3)c2)CC1
IC50 [7]: > 100 µM (active)

CC(=O)c1ccc(Nc2nc(=O)c3cccnc3s2)cc1
IC50 [7]: > 100 µM (active)

O=C(CSc1ccsc1[N+](=O)[O-])Nc1cc(F)ccc1F
IC50 [8]: 2.76 µM (active)
AC50 (Caspase-6): 5.74 µM (active)
IC50 [9]: 6.52 µM (not active)
IC50 [10]: 28.4 µM (active)

CC1(CC(=O)N/N=C/c2cc([N+](=O)[O-])c(O)cc2O)OCCO1
IC50 [1]: > 122 µM (inactive)
IC50 [8]: 4.41 µM (active)
AC50 (Caspase-6): 23.7 µM (active)
IC50 [3]: > 122 µM (inactive)
IC50 [11]: 19.3 µM (active)
IC50 [12]: 41 µM (active)

COc1ccccc1N1CCN(C(=O)c2cc(-c3cccs3)on2)CC1
IC50 [7]: > 100 µM (active)
